{"source": "patent EP0193355B1", "about": "“Analgesic composition” (ELI LILLY AND COMPANY, priority 1985, dated 1986)", "tested_on": "Mouse Writhing", "experiment": "mouse writhing assay (acetic acid-induced writhing)", "format": "in vivo, albino male mice", "conditions": "for Percent Inhibition of Writhing: Codeine Sulfate 10 mg/kg + Saline, oral; for Codeine Sulfate Induced Inhibition of Mouse Writhing ED₅₀: codeine sulfate subcutaneous, writhing assessed 30 minutes later", "from_the_text": "Writhing, which is characterized by contraction of the abdominal musculature, extension of the hindlegs, and rotation of the trunk, was induced in albino male mice. The extent to which writhing is reduced following administration of a test compound is an indication of the analgesic activity of that compound.\nMice, weighing 18-24 grams, were fasted overnight and given the test compounds by gavage or subcutaneously. Writhing was then induced by the intraperitoneal administration of acetic acid (0.55 to 0.60 percent). Each treatment group consisted of five mice. The total number of writhes for the treatment group was determined during a 10-minute observation period starting five minutes after acetic acid administration. […] The results in the mouse writhing assay are presented either as the effective dose in mg/kg of the respective test compound required to inhibit induced writhing in the test animals by fifty percent (ED₅₀), or as the percent inhibition of writhing at the particular dose of the test compound administered.", "note": "Structures can show the parent of a compound that is named as a salt.", "data": [{"smiles": "CNCCC(Oc1ccc(C(F)(F)F)cc1)c1ccccc1", "note": "(stereo not drawn) [fluoxetine hydrochloride, 3-(4-trifluoromethylphenoxy)-N-methyl-3-phenylpropylamine]", "values": [{"measurement": "analgesic activity", "setting": "fluoxetine hydrochloride alone, doses up to 160 mg/kg, 30-180 minutes before writhing was induced", "value": "devoid of analgesic activity"}]}, {"smiles": "COc1ccc2c3c1O[C@H]1[C@@H](O)C=C[C@H]4[C@@H](C2)N(C)CC[C@@]341", "note": "[Codeine Sulfate, codeine sulfate]", "values": [{"measurement": "Percent Inhibition of Writhing", "setting": "30 minutes after administration", "value": 40, "unit": "%"}, {"measurement": "Percent Inhibition of Writhing", "setting": "60 minutes after administration", "value": 38, "unit": "%"}, {"measurement": "Percent Inhibition of Writhing", "setting": "120 minutes after administration", "value": 37, "unit": "%"}, {"measurement": "Percent Inhibition of Writhing", "setting": "180 minutes after administration", "value": 35, "unit": "%"}, {"measurement": "Percent Inhibition of Writhing", "setting": "240 minutes after administration", "value": 22, "unit": "%"}, {"measurement": "Percent Inhibition of Mouse Writhing", "setting": "Codeine Sulfate 10 mg/kg oral, Fluoxetine Hydrochloride 0 mg/kg, writhing assessed 60 minutes later", "value": "no inhibition"}, {"measurement": "inhibition at 10 mg/kg", "setting": "Mus musculus, 1 h, Codeine Sulfate 10 mg/kg oral, Fluoxetine Hydrochloride 0 mg/kg, writhing assessed 60 minutes later, read-out: Percent Inhibition of Mouse Writhing", "value": 0, "unit": "%"}, {"measurement": "Codeine Sulfate Inhibition of Mouse Writhing ED₅₀", "setting": "codeine sulfate oral, alone (Fluoxetine Hydrochloride 0), writhing assessed 60 minutes later", "value": 27.0, "unit": "mg/kg"}, {"measurement": "Codeine Sulfate Inhibition of Mouse Writhing ED₅₀", "setting": "codeine sulfate oral, simultaneously with Fluoxetine Hydrochloride 20 mg/kg oral, writhing assessed 60 minutes later", "value": 15.4, "unit": "mg/kg"}, {"measurement": "Codeine Sulfate Induced Inhibition of Mouse Writhing ED₅₀", "setting": "alone (Fluoxetine Hydrochloride 0 mg/kg s.c.)", "value": 9.8, "unit": "mg/kg"}, {"measurement": "Codeine Sulfate Induced Inhibition of Mouse Writhing ED₅₀", "setting": "simultaneously with Fluoxetine Hydrochloride 20 mg/kg s.c.", "value": 2.8, "unit": "mg/kg"}, {"measurement": "Codeine Sulfate Inhibition of Mouse Writhing ED₅₀", "setting": "pretreatment Fluoxetine Hydrochloride (20 mg/kg) oral three hours before, codeine sulfate oral 15 minutes prior to assessment of writhing", "value": 9.4, "unit": "mg/kg"}, {"measurement": "Codeine Sulfate Inhibition of Mouse Writhing ED₅₀", "setting": "pretreatment Saline oral three hours before, codeine sulfate oral 15 minutes prior to assessment of writhing", "value": 18.6, "unit": "mg/kg"}, {"measurement": "ED₅₀ of codeine sulfate alone relative to the amount needed when 20 mg/kg of fluoxetine hydrochloride was concomitantly administered", "setting": "subcutaneous, 30 minutes prior to the assessment of mouse writhing", "value": 3.5, "unit": "times"}]}]}
